Measurements reported in the supplement of paper PMC10307832.

What was measured:
Experiment in all cases: relative viability (nuclei count vs DMSO), 5 days (fraction); higher = more cells survive
[1] = compound: O=C(CCCCCCNC(=O)c1cnc(N(c2ccccc2)c2ccccc2)nc1)NO [Ricolinostat] + COc1cccc2cc(-c3nc([C@H]4CC[C@H](C(=O)O)CC4)n4ncnc(N)c34)[nH]c12 [OSI-027] (partner 0.5 µM)
Outline: (§1)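 Lung cancer cell lines were seeded in 1536-well plates and dosed by pin tool the next day, with either a single drug or a fixed anchor-drug dose combined with five library-drug doses (not always all listed) spaced in √10 steps. Five days later, one step fixed the cells and stained their nuclei (final 0.05% Triton X-100, 1% formaldehyde, 1 ug/ml Hoechst), and nuclei were counted on 4× images. Relative viability is the nuclei count in treated wells divided by the count in vehicle wells, and each value is the median of duplicate plates.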

[2] = compound: O=C(CCCCCCNC(=O)c1cnc(N(c2ccccc2)c2ccccc2)nc1)NO [Ricolinostat] + CCNC(=O)c1noc(-c2cc(C(C)C)c(O)cc2O)c1-c1ccc(CN2CCOCC2)cc1 [Luminespib] (partner 0.01 µM)
Outline: as §1

[3] = compound: CC1=CN2C(=O)C=C(N=C2C(=C1)C(C)NC3=CC=CC=C3)N4CCOCC4 [TGX 221] + O=C(c1cc(Cc2n[nH]c(=O)c3ccccc23)ccc1F)N1CCN(C(=O)C2CC2)CC1 [Olaparib] (partner 8 µM)
Outline: as §1

[4] = compound: C1=CC=C(C(=C1)C2=CC=C(C=C2)C3=CSC4=C3C(=C(C(=O)N4)C#N)O)O + CC(=O)Nc1cccc(-n2c(=O)n(C3CC3)c(=O)c3c(Nc4ccc(I)cc4F)n(C)c(=O)c(C)c32)c1 [Trametinib] (partner 0.02 µM)
Outline: as §1

[5] = compound: O=C(CCCCCCNC(=O)c1cnc(N(c2ccccc2)c2ccccc2)nc1)NO [Ricolinostat]
Outline: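 On vehicle-anchored 1536-well plates, lung cancer cell lines held overnight at 37 °C were pinned with five library-drug doses (not always all listed) spaced by √10. With no medium change over 5 days, they were then fixed, permeabilised and Hoechst-stained in one step and imaged at 4×. MetaXpress counted nuclei, and viability is the median across plates of treated-well over vehicle-well nuclei. Acceptance needed control CV below 25% and at least one doubling.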

Cell Line: NCI-H1792
- relative viability ([1]; first compound 0.253 µM): 0.709
- relative viability ([1]; first compound 0.8 µM): 0.693
- relative viability ([1]; first compound 2.53 µM): 0.759
- relative viability ([2]; first compound 0.08 µM): 0.297
- relative viability ([2]; first compound 0.253 µM): 0.417
- relative viability ([2]; first compound 0.8 µM): 0.373
- relative viability ([2]; first compound 2.53 µM): 0.418
- relative viability ([3]; first compound 0.08 µM): 0.267
- relative viability ([3]; first compound 0.253 µM): 0.385
- relative viability ([3]; first compound 0.8 µM): 0.386
- relative viability ([3]; first compound 2.53 µM): 0.383
- relative viability ([3]; first compound 8 µM): 0.287
- relative viability ([4]; first compound 0.253 µM): 0.536
- relative viability ([4]; first compound 0.8 µM): 0.424
- relative viability ([4]; first compound 2.53 µM): 0.364
- relative viability ([4]; first compound 8 µM): 0.165
- relative viability ([5]; 0.08 µM): 0.599
- relative viability ([5]; 0.253 µM): 0.938
- relative viability ([5]; 0.8 µM): 0.754
- relative viability ([5]; 2.53 µM): 0.57
